Starred links: 1 amine or outer side, 2 acyl side, 3 side chain; linkers in the order of their positions; H or OH if unused. Positions of bridges follow the written chain, without caps; N, C: chain ends. Non-standard residues stand in square brackets, D forms with d. Residues, ends and D or L forms follow the SMILES beside them. Groups on a side chain read outwards from the residue. *: point of attachment. Trp(1-Me) = Cn1cc(C[C@H](N)C(=O)O)c2ccccc21; C18 diacid = O=C(O)CCCCCCCCCCCCCCCCC(=O)*; γGlu = O=C(O)[C@H](CCC(=O)[*:2])N[*:1]; AEEA = NCCOCCOCC(=O)O; Sar = CNCC(=O)O
tested on: classical complement pathway; assay: In vitro haemolysis assay (inhibition of classical complement pathway); format: cell-based, human; conditions: human serum, sensitized sheep red blood cells; Table 3, cells printed in μM; read-out: IC50, inhibition of hemolysis
In short: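 Compound dilutions preincubated 15 min at room temperature with diluted human serum (titrated per batch for 70-90% maximal haemolysis), then antibody-sensitized sheep RBC (10^7/well) added for 30 min at 37 °C in Tris/casein buffer, pH 7.4. Stopped with EDTA; haemolysis read at 405 nm; IC50 by 4PL fit.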

Compound | IC50 [µM]
CC[C@H](C)[C@H](N)C(=O)N[C@H]1CSSC[C@@H](C(=O)N[C@H](C(N)=O)[C@@H](C)O)NC(=O)[C@H](CCCN=C(N)N)NC(=O)[C@H](Cc2cnc[nH]2)NC(=O)[C@H](Cc2cnc[nH]2)NC(=O)CNC(=O)[C@H](Cc2c[nH]c3ccccc23)NC(=O)[C@H](CC(=O)O)NC(=O)[C@H](CCC(N)=O)NC(=O)[C@H](C(C)C)NC(=O)[C@H](C(C)C)NC1=O [Compstatin] | > 5

same assay, conditions: human serum, sensitized sheep red blood cells; Table 3, given as upper bounds; read-out: IC50, inhibition of hemolysis

Compound | IC50 [µM]
CC[C@H](C)[C@@H]1NC(=O)[C@@H](NC(=O)[C@H](Cc2ccccc2)NC(=O)[C@H](CCC(=O)O)NC(=O)[C@H](CO)NC(C)=O)CSSC[C@@H](C(=O)N(C)CC(=O)N[C@@H](CCC(=O)O)C(=O)NCC(=O)N[C@@H](CCC(=O)O)C(=O)NCCOCCOCC(=O)N[C@@H](CCC(=O)O)C(=O)N[C@@H](CO)C(=O)N[C@@H](CCCCNC(=O)CC[C@H](NC(=O)CNC(=O)CC[C@H](NC(=O)CCCCCCCCCCCCCCCCC(=O)O)C(=O)O)C(=O)O)C(N)=O)NC(=O)[C@H](CCCNC(=N)N)NC(=O)[C@H](Cc2c[nH]cn2)NC(=O)[C@H](CCC(=O)O)NC(=O)CNC(=O)[C@H](Cc2c[nH]c3ccccc23)NC(=O)[C@H](CC(=O)O)NC(=O)[C@H](CCC(N)=O)NC(=O)[C@H](Cc2cn(C)c3ccccc23)NC1=O [Compound 140] (Ac-SEFCI[Trp(1-Me)]QDWGEHRC[Sar]EGE[AEEA]ESK([γGlu-Gly-γGlu-C18 diacid])-NH2; disulfide 4-14) | < 0.1
CC[C@H](C)[C@@H]1NC(=O)[C@@H](NC(=O)[C@H](Cc2ccccc2)NC(=O)[C@H](CCC(=O)O)NC(=O)[C@H](CO)NC(C)=O)CSSC[C@@H](C(=O)N(C)CC(=O)N[C@@H](CCC(=O)O)C(=O)NCC(=O)N[C@@H](CCC(=O)O)C(=O)N[C@@H](CO)C(=O)N[C@@H](CCC(=O)O)C(=O)N[C@@H](CO)C(=O)N[C@@H](CCCCNC(=O)CC[C@H](NC(=O)CCCCCCCCCCCCCCCCC(=O)O)C(=O)O)C(N)=O)NC(=O)[C@H](CCCNC(=N)N)NC(=O)[C@H](Cc2c[nH]cn2)NC(=O)[C@H](CCC(=O)O)NC(=O)CNC(=O)[C@H](Cc2c[nH]c3ccccc23)NC(=O)[C@H](CC(=O)O)NC(=O)[C@H](CCC(N)=O)NC(=O)[C@H](Cc2cn(C)c3ccccc23)NC1=O [Compound 141] (Ac-SEFCI[Trp(1-Me)]QDWGEHRC[Sar]EGESESK([γGlu-C18 diacid])-NH2; disulfide 4-14) | < 0.1
CC[C@H](C)[C@@H]1NC(=O)[C@@H](NC(=O)[C@H](Cc2ccccc2)NC(=O)[C@H](CCC(=O)O)NC(=O)[C@H](CO)NC(C)=O)CSSC[C@@H](C(=O)N[C@H](C(=O)N[C@@H](CCC(=O)O)C(=O)NCC(=O)N[C@@H](CCC(=O)O)C(=O)NCCOCCOCC(=O)N[C@@H](CCC(=O)O)C(=O)N[C@@H](CO)C(=O)N[C@@H](CCCCNC(=O)CC[C@H](NC(=O)CCCCCCCCCCCCCCCCC(=O)O)C(=O)O)C(N)=O)[C@@H](C)O)NC(=O)[C@H](CCCNC(=N)N)NC(=O)[C@H](Cc2c[nH]cn2)NC(=O)[C@H](CCC(=O)O)NC(=O)CNC(=O)[C@H](Cc2c[nH]c3ccccc23)NC(=O)[C@H](CC(=O)O)NC(=O)[C@H](CCC(N)=O)NC(=O)[C@H](Cc2cn(C)c3ccccc23)NC1=O [Compound 142] (Ac-SEFCI[Trp(1-Me)]QDWGEHRCTEGE[AEEA]ESK([γGlu-C18 diacid])-NH2; disulfide 4-14) | < 0.1
CC[C@H](C)[C@@H]1NC(=O)[C@@H](NC(=O)[C@H](Cc2ccccc2)NC(=O)[C@H](CCC(=O)O)NC(=O)[C@H](CO)NC(C)=O)CSSC[C@@H](C(=O)N(C)CC(=O)N[C@@H](CCC(=O)O)C(=O)NCC(=O)N[C@@H](CCC(=O)O)C(=O)NCCOCCOCC(=O)NCCOCCOCC(=O)NCCOCCOCC(=O)N[C@@H](CCCCNC(=O)CC[C@H](NC(=O)CNC(=O)CC[C@H](NC(=O)CCCCCCCCCCCCCCCCC(=O)O)C(=O)O)C(=O)O)C(N)=O)NC(=O)[C@H](CCCNC(=N)N)NC(=O)[C@H](Cc2c[nH]cn2)NC(=O)[C@H](CCC(=O)O)NC(=O)CNC(=O)[C@H](Cc2c[nH]c3ccccc23)NC(=O)[C@H](CC(=O)O)NC(=O)[C@H](CCC(N)=O)NC(=O)[C@H](Cc2cn(C)c3ccccc23)NC1=O [Compound 143] (Ac-SEFCI[Trp(1-Me)]QDWGEHRC[Sar]EGE[AEEA][AEEA][AEEA]K([γGlu-Gly-γGlu-C18 diacid])-NH2; disulfide 4-14) | < 0.1
CC[C@H](C)[C@@H]1NC(=O)[C@@H](NC(=O)[C@H](Cc2ccccc2)NC(=O)[C@H](CCC(=O)O)NC(=O)[C@H](CO)NC(C)=O)CSSC[C@@H](C(=O)N(C)CC(=O)N[C@@H](CCC(=O)O)C(=O)NCCOCCOCC(=O)NCCOCCOCC(=O)N[C@@H](CCCCNC(=O)CC[C@H](NC(=O)CNC(=O)CC[C@H](NC(=O)CCCCCCCCCCCCCCCCC(=O)O)C(=O)O)C(=O)O)C(N)=O)NC(=O)[C@H](CCCNC(=N)N)NC(=O)[C@H](Cc2c[nH]cn2)NC(=O)[C@H](CCC(=O)O)NC(=O)CN(C)C(=O)[C@H](Cc2c[nH]c3ccccc23)NC(=O)[C@H](CC(=O)O)NC(=O)[C@H](CCC(N)=O)NC(=O)[C@H](Cc2cn(C)c3ccccc23)NC1=O [Compound 144, Ac-SEFC(1)I[1-Me-Trp]QDW[Sar]EHRC(1)[Sar]E[Peg3][Peg3]-K([17-carboxy-heptadecanoyl][γGlu]G[γGlu])-NH2] (Ac-SEFCI[Trp(1-Me)]QDW[Sar]EHRC[Sar]E[AEEA][AEEA]K([γGlu-Gly-γGlu-C18 diacid])-NH2; disulfide 4-14) | < 0.1
CC[C@H](C)[C@@H]1NC(=O)[C@@H](NC(=O)[C@H](Cc2ccccc2)NC(=O)[C@H](CCC(=O)O)NC(C)=O)CSSC[C@@H](C(=O)N(C)CC(=O)N[C@@H](CCC(=O)O)C(=O)N[C@@H](C)C(=O)NCCOCCOCC(=O)NCCOCCOCC(=O)N[C@@H](CCCCNC(=O)CC[C@H](NC(=O)CNC(=O)CC[C@H](NC(=O)CCCCCCCCCCCCCCCCC(=O)O)C(=O)O)C(=O)O)C(N)=O)NC(=O)[C@H](CCCNC(=N)N)NC(=O)[C@H](Cc2c[nH]cn2)NC(=O)[C@H](CCC(=O)O)NC(=O)CNC(=O)[C@H](Cc2c[nH]c3ccccc23)NC(=O)[C@H](CC(=O)O)NC(=O)[C@H](CCC(N)=O)NC(=O)[C@H](Cc2cn(C)c3ccccc23)NC1=O [Compound 145] (Ac-EFCI[Trp(1-Me)]QDWGEHRC[Sar]EA[AEEA][AEEA]K([γGlu-Gly-γGlu-C18 diacid])-NH2; disulfide 3-13) | < 0.1

same assay, conditions: human serum, sensitized sheep red blood cells; Table 4, valine 3 vs isoleucine 3 pairs; read-out: CP hemolysis IC50

Compound | IC50 [µM]
CC[C@H](C)[C@H](NC(C)=O)C(=O)N[C@H]1CSSC[C@@H](C(=O)N[C@H](C(=O)NCC(=O)N[C@@H](C)C(=O)N[C@@H](CCC(=O)O)C(=O)N[C@@H](CO)C(N)=O)[C@@H](C)O)NC(=O)[C@H](CCCNC(=N)N)NC(=O)[C@H](Cc2c[nH]cn2)NC(=O)[C@H](CCC(=O)O)NC(=O)CNC(=O)[C@H](Cc2c[nH]c3ccccc23)NC(=O)[C@H](CC(=O)O)NC(=O)[C@H](CCC(N)=O)NC(=O)[C@H](Cc2c[nH]c3ccccc23)NC(=O)[C@H](C(C)C)NC1=O [D, reference compound] (Ac-ICVWQDWGEHRCTGAES-NH2; disulfide 2-12) | 0.21
CC[C@H](C)[C@H](NC(C)=O)C(=O)N[C@H]1CSSC[C@@H](C(=O)N[C@H](C(N)=O)[C@@H](C)O)NC(=O)[C@H](CO)NC(=O)[C@H](Cc2c[nH]cn2)NC(=O)[C@H](C)NC(=O)CNC(=O)[C@H](Cc2c[nH]c3ccccc23)NC(=O)[C@H](CC(=O)O)NC(=O)[C@H](CCC(N)=O)NC(=O)[C@H](Cc2c[nH]c3ccccc23)NC(=O)[C@H](C(C)C)NC1=O [E, reference compound] (Ac-ICVWQDWGAHSCT-NH2; disulfide 2-12) | > 1

From patent US11965039B2, “Compstatin analogues and their medical uses” (priority 2018, dated 2024)
